# Measured values reported in patent publication US5085991A, “Process of preparing purified aqueous indole solution” (Mitsui Toatsu Chemicals, Inc., priority 1987, dated 1992).
# Read-outs that look alike come from different tables or passages of the source.
# Experiments:
# tryptophan synthase = tryptophan synthase (Escherichia coli, UniProt P0A879); assay: Activity of immobilized tryptophan synthase source after standing in aqueous solutions of organic impurities; type: biochemical, Escherichia coli MT-10232 (FERM BP-19); details: for activity at 20 µg/mL: impurity 20 ppm; for activity at 20 µg/mL / activity at 50 µg/mL / activity at 200 µg/mL / activity at 500 µg/mL / activity at 1000 µg/mL: 30° C., pH 8.5; for activity at 20 µg/mL / activity at 50 µg/mL / activity at 500 µg/mL / activity at 1000 µg/mL: ratio to enzyme left in reference solution; for activity at 50 µg/mL: impurity 50 ppm; for activity at 200 µg/mL: impurity 200 ppm, ratio to enzyme left in reference solution without organic substance; for level at which the impurity inhibits tryptophan synthase: enzyme synthesizing tryptophan from indole and L-serine; for activity at 500 µg/mL: impurity 500 ppm; for activity at 1000 µg/mL: impurity 1000 ppm
# Procedure: Escherichia coli MT-10232 (FERM BP-19), which is a tryptophan synthase-producing bacterium, was inoculated to 100 ml of the culture medium having the composition shown in Table 2 in a 500 ml flask, and was incubated at 35° C. for 24 hours. Two hundred milliliters (in two flasks) of the culture medium was inoculated to 15 1 of the culture medium having the composition shown in Table 3 in 30 1 of jar fermenter and was incubated at 35° C., pH 6.8 (adjusted with 28% aqueous ammonia) for 30 hours.
# After the culture, the culture medium was centrifuged to collect 600 g wet weight of the bacterial cells. The cells were placed in a sealed container and restored in a refrigerator at 4° C., and were used for preparing the immobilized enzyme source.
# One part of the above-described wet bacterial cells and one part of isotonic sodium chloride solution were mixed with stirring. On the other hand, 7.76 parts of distilled water and 0.24 parts of sodium alginate (NSPLL manufactured by Kibun Food Chemifa, Co., Ltd.) were mixed with stirring and pH thereof was adjusted to 8.5 with sodium hydroxide.
# Two parts of the suspension of the cells and 8 parts of the sodium alginate solution were mixed with stirring and the resulting mixture was fed into a syringe and was dropped into a gelling solution from the tip of a needle with an inner diameter of 0.5 mm to 0.8 mm.
# The particles formed by dropping the mixture into the gelling solution was matured under stirring in the gelling solution to obtain immobilized enzyme source.
# To each of the aqueous solutions with a volume of 100 ml containing aniline, N-ethylaniline, o-ethylaniline, o-toluidine, 3-methylindole or 2-ethylindole in the amount shown in Table 4, […] of calcium chloride dihydrate and 1 mg of pyridoxal-5'-phosphate were added, and the pH thereof was adjusted to 8.5 with aqueous ammonia.
# Further, as a reference solution, 100 ml of distilled water containing no organic substance was subjected to the same procedure as described above and the immobilized enzyme source was added thereto as mentioned above, followed by being left to stand at 30° C.
# Twenty four hours later and 96 hours later, 1 g of immobilized enzyme source was removed from each of the solutions and the enzyme activity was determined. The ratio of the activity of the enzyme left in the solution of the organic substance to the activity of the enzyme left in the reference solution was determined and is shown in Table 4.
# The enzyme activity was determined as follows:
# Ten milliliters of reaction medium containing indole, L-serine, pyridoxal-5'-phosphate (PLP) and 0.3 g of the immobilized enzyme source was prepared and the reaction was conducted at 35° C. in a shaking incubator for 1 hour with shaking. The produced L-tryptophan was analyzed with high performance liquid chromatography.
# [1] = room temperature; cited from earlier work
# [2] = 24 h, read-out: Activity Ratio 24 Hours Later
# [3] = 96 h, read-out: Activity Ratio 96 Hours Later
# Sequence of tryptophan synthase (P0A879 2-397): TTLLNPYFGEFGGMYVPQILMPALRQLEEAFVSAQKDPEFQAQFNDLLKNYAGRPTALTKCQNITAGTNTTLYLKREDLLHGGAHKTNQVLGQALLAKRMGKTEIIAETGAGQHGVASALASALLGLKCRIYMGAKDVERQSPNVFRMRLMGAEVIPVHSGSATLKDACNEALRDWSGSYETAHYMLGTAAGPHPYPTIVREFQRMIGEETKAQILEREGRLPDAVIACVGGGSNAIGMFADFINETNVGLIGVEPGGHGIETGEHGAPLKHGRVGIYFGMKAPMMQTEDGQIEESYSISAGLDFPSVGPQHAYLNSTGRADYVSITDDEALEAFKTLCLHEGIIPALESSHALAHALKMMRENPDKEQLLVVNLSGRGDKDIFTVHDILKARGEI
# Sequence of tryptophan synthase (P0A877 whole entry, further chain): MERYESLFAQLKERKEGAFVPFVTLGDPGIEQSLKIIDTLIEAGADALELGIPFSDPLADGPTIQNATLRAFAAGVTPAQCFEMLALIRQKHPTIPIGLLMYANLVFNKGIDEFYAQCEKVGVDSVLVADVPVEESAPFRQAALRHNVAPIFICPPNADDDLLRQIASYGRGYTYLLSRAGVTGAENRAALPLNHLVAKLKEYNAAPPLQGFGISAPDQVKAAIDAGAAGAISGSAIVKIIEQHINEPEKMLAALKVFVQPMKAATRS
SMILES,activity at 20 µg/mL (tryptophan synthase; [2]),activity at 50 µg/mL (tryptophan synthase; [2]),activity at 200 µg/mL (tryptophan synthase; [2]),activity at 20 µg/mL (tryptophan synthase; [3]),activity at 50 µg/mL (tryptophan synthase; [3]),activity at 200 µg/mL (tryptophan synthase; [3]),level at which the impurity inhibits tryptophan synthase (tryptophan synthase),activity at 500 µg/mL (tryptophan synthase; [2]),activity at 500 µg/mL (tryptophan synthase; [3]),activity at 1000 µg/mL (tryptophan synthase; [2]),activity at 1000 µg/mL (tryptophan synthase; [3]),solubility in water [1]
CCc1cc2ccccc2[nH]1 [2-ethylindole],93%,73%,68%,71%,54%,48%,about 20 ppm,–,–,–,–,–
Cc1c[nH]c2ccccc12 [3-methylindole],–,–,94%,–,–,89%,about 200 ppm,94%,84%,–,–,–
Nc1ccccc1 [Aniline],–,–,98%,–,–,101%,–,–,–,100%,82%,–
CCNc1ccccc1 [N-ethylaniline],–,–,104%,–,–,97%,–,–,–,100%,89%,–
c1ccc2[nH]ccc2c1 [indole],–,–,–,–,–,–,–,–,–,–,–,3000 to 4000 µg/mL
CCc1ccccc1N [o-ethylaniline],–,–,90%,–,–,77%,about 200 ppm,–,–,71%,50%,–
Cc1ccccc1N [o-toluidine],–,–,97%,–,–,106%,–,–,–,88%,80%,–
